In US20220411471A1, “CELL-PERMEABLE CYCLIC PEPTIDES AND USES THEREOF” (Unnatural Products Inc., priority 2019, published 2022) one finds IC50 data, which are given here for eleven compounds.

SMILES strings stand for the structures. Non-standard residues stand in square brackets, D forms with d. Residues, ends and D or L forms follow the SMILES beside them. Phe(4-Cl) = N[C@@H](Cc1ccc(Cl)cc1)C(=O)O; Phe(4-F) = N[C@@H](Cc1ccc(F)cc1)C(=O)O; 3Pal = N[C@@H](Cc1cccnc1)C(=O)O; 2Thi = N[C@@H](Cc1cccs1)C(=O)O; NMeL = CN[C@@H](CC(C)C)C(=O)O; dNMeV = CN[C@@H](C(=O)O)C(C)C; NMeNle = CCCC[C@H](NC)C(=O)O; Tle = CC(C)(C)[C@H](N)C(=O)O; dPip = O=C(O)[C@H]1CCCCN1; NMeA = CN[C@@H](C)C(=O)O; Nme = COCCNCC(=O)O

For orientation: IC50 means the midpoint of a concentration-inhibition curve.

This assay deals with T1, Human MDM2 (HDM2) 1-116 (Homo sapiens, UniProt Q00987).
T1 construct: Human MDM2 (HDM2) 1-116
T1 sequence (Q00987 1-116): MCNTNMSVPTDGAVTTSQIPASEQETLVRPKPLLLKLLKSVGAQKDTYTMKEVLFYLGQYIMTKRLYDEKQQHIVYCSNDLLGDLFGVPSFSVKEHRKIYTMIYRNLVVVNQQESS
The experiment in a line: Fluorescence polarization assay, MDM2/p53 (Table 3). The class given is binding. The procedure: (§1) Human MDM2 (HDM2) 1-116 (20 μL) and FITC-labeled p53 (18-26), 50 nM and 10 nM respectively in 10 mM Tris, 50 mM NaCl, 0.01% Tween20, and 1 mM DTT at pH 7.4 were dispensed into an opaque, black, 384 well plate. Compounds dissolved in DMSO were pin transferred (˜200 nL) to the 384 well plate containing the MDM2/p53 solution. After incubation for 10 minutes, the fluorescence polarization was read on a Molecular Devices SpectraMax plate reader equipped with a Fluorescein FP cartridge. In addition to probe alone (positive control) and probe/MDM2 (negative control), a titration of linear p53(18-26) was included on every plate as an additional control. IC50 values were fit using either Prism or Collaborative Drug Discovery.
as §1, with “and FAM-labeled RFMDYWEGL-NH2,” for “and FITC-labeled p53 (18-26),”, “NaCl, 0.010%” for “NaCl, 0.01%”, “transferred (˜100-200” for “transferred (˜200”, “for 60” for “for 10”
A general note: In fluorescence polarisation assays a small probe gives low polarisation when free and higher when bound to something large.

With `CC(C)C[C@H]1C(=O)N[C@@H](CC(=O)O)C(=O)N[C@@H](Cc2c[nH]c3ccccc23)C(=O)N[C@@H](CCC(=O)O)C(=O)N[C@@H](Cc2ccccc2)C(=O)N2CCC[C@@H]2C(=O)N2CCC[C@H]2C(=O)N[C@@H](Cc2ccc(F)cc2)C(=O)N[C@@H](CCC(=O)O)C(=O)N[C@@H](Cc2ccc(Cl)cc2)C(=O)N1C` [Compound 6, [H]OC(=O)CC[C@@H]1NC(=O)[C@H](Cc2cn([H])c3ccccc23)NC(=O)[C@H](CC(=O)O[H])NC(=O)[C@H](CC(C)C)N(C)C(=O)[C@H](Cc2ccc(Cl)cc2)NC(=O)[C@H](CCC(=O)O[H])NC(=O)[C@H](Cc2ccc(F)cc2)NC(=O)[C@@H]2CCCN2C(=O)[C@H]2CCCN2C(=O)[C@H](Cc2ccccc2)NC1=O] (cyclo([Phe(4-F)]E[Phe(4-Cl)][NMeL]DWEF[dP]P)), the IC50 was under 1000 nM. Take `CCCC[C@H]1C(=O)N[C@@H](Cc2ccccc2)C(=O)N2CCC[C@@H]2C(=O)N2CCC[C@H]2C(=O)N[C@@H](Cc2ccccc2)C(=O)N(C)[C@@H](CCCC)C(=O)N[C@@H](Cc2c[nH]c3ccccc23)C(=O)N(C)[C@@H](CC(C)C)C(=O)N[C@@H](CC(=O)O)C(=O)N[C@@H](Cc2c[nH]c3ccccc23)C(=O)N1C` [Compound 7, [H]OC(=O)C[C@@H]1NC(=O)[C@H](CC(C)C)N(C)C(=O)[C@H](Cc2cn([H])c3ccccc23)NC(=O)[C@H](CCCC)N(C)C(=O)[C@H](Cc2ccccc2)NC(=O)[C@@H]2CCCN2C(=O)[C@H]2CCCN2C(=O)[C@H](Cc2ccccc2)NC(=O)[C@H](CCCC)N(C)C(=O)[C@H](Cc2cn([H])c3ccccc23)NC1=O] (cyclo(F[NMeNle]W[NMeL]DW[NMeNle]F[dP]P)): the half-maximal inhibitory concentration (IC50) was at least 5000 nM. `C[C@H]1C(=O)N[C@@H](Cc2ccc(Cl)cc2)C(=O)N2CCCC[C@@H]2C(=O)N2CCC[C@H]2C(=O)N[C@@H](Cc2ccccc2)C(=O)N[C@@H](CCC(=O)O)C(=O)N[C@@H](Cc2ccc(O)cc2)C(=O)N2CCC[C@@H]2C(=O)N(C)[C@@H](C)C(=O)N[C@@H](Cc2ccc(F)cc2)C(=O)N1C` [Compound 8, [H]OC(=O)CC[C@@H]1NC(=O)[C@H](Cc2ccccc2)NC(=O)[C@@H]2CCCN2C(=O)[C@H]2CCCCN2C(=O)[C@H](Cc2ccc(Cl)cc2)NC(=O)[C@H](C)N(C)C(=O)[C@H](Cc2ccc(F)cc2)NC(=O)[C@H](C)N(C)C(=O)[C@H]2CCCN2C(=O)[C@H](Cc2ccc(O[H])cc2)NC1=O] (cyclo(EY[dP][NMeA][Phe(4-F)][NMeA][Phe(4-Cl)][dPip]PF)) displayed an IC50 of 2500 to 5000 nM. `C[C@H]1C(=O)N[C@@H](Cc2ccc(F)cc2)C(=O)N[C@@H](CCC(=O)O)C(=O)N[C@@H](Cc2ccccc2)C(=O)N2CCCC[C@@H]2C(=O)N2CCC[C@H]2C(=O)N[C@@H](Cc2ccccc2)C(=O)N[C@@H](CCC(=O)O)C(=O)N[C@@H](Cc2c[nH]c3ccccc23)C(=O)N2CCC[C@@H]2C(=O)N1C` [Compound 9, [H]OC(=O)CC[C@@H]1NC(=O)[C@H](Cc2ccccc2)NC(=O)[C@@H]2CCCN2C(=O)[C@H]2CCCCN2C(=O)[C@H](Cc2ccccc2)NC(=O)[C@H](CCC(=O)O[H])NC(=O)[C@H](Cc2ccc(F)cc2)NC(=O)[C@H](C)N(C)C(=O)[C@H]2CCCN2C(=O)[C@H](Cc2cn([H])c3ccccc23)NC1=O] (cyclo(EF[dPip]PFEW[dP][NMeA][Phe(4-F)])) had an IC50 of under 1000 nM. Under `C[C@H]1C(=O)N[C@@H](Cc2ccc(Cl)cc2)C(=O)N2CCCC[C@@H]2C(=O)N2CCC[C@H]2C(=O)N[C@@H](Cc2ccccc2)C(=O)N[C@@H](C(C)(C)C)C(=O)N[C@@H](Cc2ccc(O)cc2)C(=O)N2CCC[C@@H]2C(=O)N(C)[C@@H](C)C(=O)N[C@@H](Cc2ccc(F)cc2)C(=O)N1C` [Compound 10, [H]Oc1ccc(C[C@@H]2NC(=O)[C@@H](NC(=O)[C@H](Cc3ccccc3)NC(=O)[C@@H]3CCCN3C(=O)[C@H]3CCCCN3C(=O)[C@H](Cc3ccc(Cl)cc3)NC(=O)[C@H](C)N(C)C(=O)[C@H](Cc3ccc(F)cc3)NC(=O)[C@H](C)N(C)C(=O)[C@H]3CCCN3C2=O)C(C)(C)C)cc1] (cyclo(F[Tle]Y[dP][NMeA][Phe(4-F)][NMeA][Phe(4-Cl)][dPip]P)) stands 1000 to 2500 nM; under `C[C@H]1C(=O)N[C@@H](Cc2ccc(Cl)cc2)C(=O)N2CCCC[C@@H]2C(=O)N2CCC[C@H]2C(=O)N[C@@H](Cc2ccccc2)C(=O)N[C@@H](C(C)(C)C)C(=O)N[C@@H](Cc2ccc(O)cc2)C(=O)N2CCC[C@@H]2C(=O)N(C)[C@@H](C)C(=O)N[C@@H](Cc2ccc(F)cc2)C(=O)N1C` [Compound 11, [H]Oc1ccc(C[C@@H]2NC(=O)[C@@H](NC(=O)[C@H](Cc3ccccc3)NC(=O)[C@@H]3CCCN3C(=O)[C@H]3CCCCN3C(=O)[C@H](Cc3ccc(Cl)cc3)NC(=O)[C@H](C)N(C)C(=O)[C@H](Cc3ccc(F)cc3)NC(=O)[C@H](C)N(C)C(=O)[C@H]3CCCN3C2=O)C(C)(C)C)cc1] (cyclo(F[Tle]Y[dP][NMeA][Phe(4-F)][NMeA][Phe(4-Cl)][dPip]P)), at least 5000 nM; under `COCCN1CC(=O)N(C)[C@@H](C)C(=O)N[C@@H](Cc2ccc(F)cc2)C(=O)N(C)[C@@H](C)C(=O)N[C@@H](Cc2ccc(Cl)cc2)C(=O)N(C)[C@H](C(C)C)C(=O)N2CCC[C@H]2C(=O)N[C@@H](Cc2ccccc2)C(=O)N[C@@H](C(C)(C)C)C(=O)N[C@@H](Cc2ccc(O)cc2)C1=O` [Compound 14, [H]Oc1ccc(C[C@@H]2NC(=O)[C@@H](NC(=O)[C@H](Cc3ccccc3)NC(=O)[C@@H]3CCCN3C(=O)[C@@H](C(C)C)N(C)C(=O)[C@H](Cc3ccc(Cl)cc3)NC(=O)[C@H](C)N(C)C(=O)[C@H](Cc3ccc(F)cc3)NC(=O)[C@H](C)N(C)C(=O)CN(CCOC)C2=O)C(C)(C)C)cc1] (cyclo(F[Tle]Y[Nme][NMeA][Phe(4-F)][NMeA][Phe(4-Cl)][dNMeV]P)), 1000 to 2500 nM. The compound `C[C@H]1C(=O)N[C@@H](Cc2ccc(Cl)cc2)C(=O)N2CCCC[C@@H]2C(=O)N2CCC[C@H]2C(=O)N[C@@H](Cc2ccc(O)cc2)C(=O)N[C@@H](CCC(=O)O)C(=O)N[C@@H](Cc2cccnc2)C(=O)N2CCC[C@@H]2C(=O)N(C)[C@@H](C)C(=O)N[C@@H](Cc2ccc(F)cc2)C(=O)N1C` [Compound 15, [H]OC(=O)CC[C@@H]1NC(=O)[C@H](Cc2ccc(O[H])cc2)NC(=O)[C@@H]2CCCN2C(=O)[C@H]2CCCCN2C(=O)[C@H](Cc2ccc(Cl)cc2)NC(=O)[C@H](C)N(C)C(=O)[C@H](Cc2ccc(F)cc2)NC(=O)[C@H](C)N(C)C(=O)[C@H]2CCCN2C(=O)[C@H](Cc2cccnc2)NC1=O] (cyclo([3Pal][dP][NMeA][Phe(4-F)][NMeA][Phe(4-Cl)][dPip]PYE)) showed an IC50 of 1000 to 2500 nM. Turning to `C[C@H]1C(=O)N[C@@H](Cc2ccc(Cl)cc2)C(=O)N2CCCC[C@@H]2C(=O)N2CCC[C@H]2C(=O)N[C@@H](Cc2cccnc2)C(=O)N[C@@H](CCC(=O)O)C(=O)N[C@@H](Cc2ccc(O)cc2)C(=O)N2CCC[C@@H]2C(=O)N(C)[C@@H](C)C(=O)N[C@@H](Cc2ccc(F)cc2)C(=O)N1C` [Compound 16, [H]OC(=O)CC[C@@H]1NC(=O)[C@H](Cc2cccnc2)NC(=O)[C@@H]2CCCN2C(=O)[C@H]2CCCCN2C(=O)[C@H](Cc2ccc(Cl)cc2)NC(=O)[C@H](C)N(C)C(=O)[C@H](Cc2ccc(F)cc2)NC(=O)[C@H](C)N(C)C(=O)[C@H]2CCCN2C(=O)[C@H](Cc2ccc(O[H])cc2)NC1=O] (cyclo([3Pal]EY[dP][NMeA][Phe(4-F)][NMeA][Phe(4-Cl)][dPip]P)), the IC50 is under 1000 nM. For `COCCN1CC(=O)N(C)[C@@H](C)C(=O)N[C@@H](Cc2ccc(F)cc2)C(=O)N(C)[C@@H](C)C(=O)N[C@@H](Cc2ccc(Cl)cc2)C(=O)N(C)[C@H](C(C)C)C(=O)N2CCC[C@H]2C(=O)N[C@@H](Cc2cccs2)C(=O)N[C@@H](C(C)(C)C)C(=O)N[C@@H](Cc2cccnc2)C1=O` [Compound 17, COCCN1CC(=O)N(C)[C@@H](C)C(=O)N[C@@H](Cc2ccc(F)cc2)C(=O)N(C)[C@@H](C)C(=O)N[C@@H](Cc2ccc(Cl)cc2)C(=O)N(C)[C@H](C(C)C)C(=O)N2CCC[C@H]2C(=O)N[C@@H](Cc2cccs2)C(=O)N[C@H](C(=O)N[C@@H](Cc2cccnc2)C1=O)C(C)(C)C] (cyclo([2Thi][Tle][3Pal][Nme][NMeA][Phe(4-F)][NMeA][Phe(4-Cl)][dNMeV]P)), the IC50 was under 1000 nM. Regarding `COCCN1CC(=O)N[C@@H](Cc2ccc(Cl)cc2)C(=O)N2CCCC[C@@H]2C(=O)N2CCC[C@H]2C(=O)N[C@@H](Cc2ccccc2)C(=O)N[C@@H](C(C)(C)C)C(=O)N[C@@H](Cc2cccnc2)C(=O)N2CCC[C@@H]2C(=O)N(C)[C@@H](C)C(=O)N[C@@H](Cc2ccc(F)cc2)C1=O` [Compound 18, COCCN1CC(=O)N[C@@H](Cc2ccc(Cl)cc2)C(=O)N2CCCC[C@@H]2C(=O)N2CCC[C@H]2C(=O)N[C@@H](Cc2ccccc2)C(=O)N[C@H](C(=O)N[C@@H](Cc2cccnc2)C(=O)N2CCC[C@@H]2C(=O)N(C)[C@@H](C)C(=O)N[C@@H](Cc2ccc(F)cc2)C1=O)C(C)(C)C] (cyclo([3Pal][dP][NMeA][Phe(4-F)][Nme][Phe(4-Cl)][dPip]PF[Tle])), the IC50 is under 1000 nM.
